Data: PubChem BioAssay AID248 (DTP/NCI, 2004)
Inconclusive results and toxic doses are left out. No stated cut-off is given here; in the data, active means T/C of 150% or more; inactive means T/C below 125%.

Tested on: L1210 leukemia ip in BDF1 mice, survival T/C
Test: NCI In Vivo Anticancer Drug Screen. Data for tumor model L1210 Leukemia (intraperitoneal) in B6D2F1 (BDF1) mice
Conditions: higher = longer survival
In short: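 Tumor was transplanted into mice, which were then dosed with test compound or vehicle alone. Survival was recorded for each group, and the treated figure was expressed relative to the control figure.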

[1] = endpoint: mean survival time, dose: 50.0 mg/kg/injection, schedule: Q01DX009 (ip), vehicle: Klucel (hydroxypropylcellulose) (HPC)
[2] = endpoint: mean survival time, dose: 100.0 mg/kg/injection, schedule: Q04DX003 (ip), vehicle: Klucel (hydroxypropylcellulose) (HPC)
[3] = endpoint: mean survival time, dose: 200.0 mg/kg/injection, schedule: Q04DX003 (ip), vehicle: Klucel (hydroxypropylcellulose) (HPC)
[4] = endpoint: mean survival time, dose: 100.0 mg/kg/injection, schedule: Q04DX003 (ip), vehicle: saline with Tween-80
[5] = endpoint: mean survival time, dose: 200.0 mg/kg/injection, schedule: Q04DX003 (ip), vehicle: saline with Tween-80
[6] = endpoint: mean survival time, dose: 100.0 mg/kg/injection, schedule: Q04DX002 (ip), vehicle: Klucel (hydroxypropylcellulose) (HPC)
[7] = endpoint: mean survival time, dose: 200.0 mg/kg/injection, schedule: Q04DX002 (ip), vehicle: Klucel (hydroxypropylcellulose) (HPC)
[8] = endpoint: mean survival time, dose: 400.0 mg/kg/injection, schedule: Q04DX002 (ip), vehicle: Klucel (hydroxypropylcellulose) (HPC)
[9] = endpoint: mean survival time, dose: 100.0 mg/kg/injection, schedule: Q01DX009 (ip), vehicle: saline with Tween-80
[10] = endpoint: mean survival time, dose: 200.0 mg/kg/injection, schedule: Q01DX009 (ip), vehicle: saline with Tween-80
[11] = endpoint: mean survival time, dose: 400.0 mg/kg/injection, schedule: Q01DX009 (ip), vehicle: saline with Tween-80
[12] = endpoint: mean survival time, dose: 100.0 mg/kg/injection, schedule: Q01DX009 (ip), vehicle: Klucel (hydroxypropylcellulose) (HPC)
[13] = endpoint: mean survival time, dose: 200.0 mg/kg/injection, schedule: Q01DX009 (ip), vehicle: Klucel (hydroxypropylcellulose) (HPC)
[14] = endpoint: mean survival time, dose: 50.0 mg/kg/injection, schedule: Q01DX009 (ip), vehicle: saline
[15] = endpoint: mean survival time, dose: 100.0 mg/kg/injection, schedule: Q01DX009 (ip), vehicle: saline
[16] = endpoint: mean survival time, dose: 100.0 mg/kg/injection, schedule: Q04DX003 (ip), vehicle: saline
[17] = endpoint: mean survival time, dose: 200.0 mg/kg/injection, schedule: Q04DX003 (ip), vehicle: saline

Measured: T/C

NNC(=O)c1cccs1
inactive: endpoint: mean survival time, dose: 25.0 mg/kg/injection, schedule: Q01DX009 (ip), vehicle: Klucel (hydroxypropylcellulose) (HPC) 100 % of control | endpoint: mean survival time, dose: 25.0 mg/kg/injection, schedule: Q04DX003 (ip), vehicle: Klucel (hydroxypropylcellulose) (HPC) 95 % of control | endpoint: mean survival time, dose: 50.0 mg/kg/injection, schedule: Q01DX001 (ip), vehicle: carboxymethylcellulose (CMC) 100 % of control | [1] 103 % of control | endpoint: mean survival time, dose: 50.0 mg/kg/injection, schedule: Q04DX003 (ip), vehicle: Klucel (hydroxypropylcellulose) (HPC) 95 % of control | [2] 101 % of control

O=C(COc1cccc(C(=O)O)c1)Nc1ccccc1
inactive: [2] 95 % of control | [3] 93 % of control | endpoint: mean survival time, dose: 400.0 mg/kg/injection, schedule: Q04DX003 (ip), vehicle: Klucel (hydroxypropylcellulose) (HPC) 92 % of control

O=[N+]([O-])c1ccc(-c2ccc([N+](=O)[O-])c(-c3ccccc3)c2)cc1
inactive: [4] 93 % of control | [5] 88 % of control

Nc1nc(-c2cc(Br)ccc2N=NN2CCCCC2)nc2ccc(Br)cc12
inactive: [6] 86 % of control | [7] 89 % of control | [8] 99 % of control

O=C(N=Nc1c(O)[nH]c2ccc(Br)cc12)c1ccco1
inactive: [6] 111 % of control | [7] 95 % of control | [8] 95 % of control

O=c1c2ccccc2sc2cccc(Sc3ccccc3)c12
inactive: [9] 101 % of control | [10] 98 % of control | [11] 98 % of control

COc1ccc(Cl)cc1NC(=O)Nc1ccc(S(N)(=O)=O)cc1
inactive: [12] 102 % of control | [13] 93 % of control | endpoint: mean survival time, dose: 400.0 mg/kg/injection, schedule: Q01DX009 (ip), vehicle: Klucel (hydroxypropylcellulose) (HPC) 94 % of control

C[S+](C)CCCNC(=O)c1csc(CCNC(=O)c2ccccc2)n1
inactive: endpoint: mean survival time, dose: 12.5 mg/kg/injection, schedule: Q01DX009 (ip), vehicle: saline with Tween-80 100 % of control | endpoint: mean survival time, dose: 12.5 mg/kg/injection, schedule: Q04DX003 (ip), vehicle: saline with Tween-80 103 % of control | endpoint: mean survival time, dose: 25.0 mg/kg/injection, schedule: Q01DX009 (ip), vehicle: saline with Tween-80 97 % of control | endpoint: mean survival time, dose: 25.0 mg/kg/injection, schedule: Q04DX003 (ip), vehicle: saline with Tween-80 101 % of control | endpoint: mean survival time, dose: 50.0 mg/kg/injection, schedule: Q01DX009 (ip), vehicle: saline with Tween-80 101 % of control | endpoint: mean survival time, dose: 50.0 mg/kg/injection, schedule: Q04DX003 (ip), vehicle: saline with Tween-80 97 % of control

Nc1ccn(C2OC(COP(=O)(O)O)C(O)C2O)c(=O)n1 (stereo not given)
active: endpoint: mean survival time, dose: 18.0 mg/kg/injection, schedule: Q01DX Z (ip), vehicle: saline 193 % of control | endpoint: mean survival time, dose: 26.5 mg/kg/injection, schedule: Q01DX Z (ip), vehicle: saline 195 % of control | endpoint: mean survival time, dose: 40.0 mg/kg/injection, schedule: Q01DX Z (ip), vehicle: saline 218 % of control | endpoint: mean survival time, dose: 60.0 mg/kg/injection, schedule: Q01DX Z (ip), vehicle: saline 157 % of control | endpoint: median survival time, dose: 22.0 mg/kg/injection, schedule: Q01DX009 (ip), vehicle: sodium bicarbonate 171 % of control | endpoint: median survival time, dose: 33.0 mg/kg/injection, schedule: Q01DX009 (ip), vehicle: sodium bicarbonate 177 % of control | endpoint: median survival time, dose: 46.0 mg/kg/injection, schedule: Q01DX009 (ip), vehicle: sodium bicarbonate 177 % of control | endpoint: median survival time, dose: 66.0 mg/kg/injection, schedule: Q01DX009 (ip), vehicle: sodium bicarbonate 181 % of control
inactive: endpoint: mean survival time, dose: 2.5 mg/kg/injection, schedule: Q01DX009 (ip), vehicle: other 108 % of control | endpoint: mean survival time, dose: 5.0 mg/kg/injection, schedule: Q01DX009 (ip), vehicle: other 96 % of control | endpoint: mean survival time, dose: 10.0 mg/kg/injection, schedule: Q01DX009 (ip), vehicle: other 116 % of control

CCCCCCCCCCCCCCCC(=O)N(CCCCN(C)C)CCCCN(C)C
inactive: endpoint: mean survival time, dose: 2.0 mg/kg/injection, schedule: Q01DX009 (ip), vehicle: carboxymethylcellulose (CMC) 97 % of control | endpoint: mean survival time, dose: 4.0 mg/kg/injection, schedule: Q01DX009 (ip), vehicle: carboxymethylcellulose (CMC) 98 % of control | endpoint: mean survival time, dose: 6.0 mg/kg/injection, schedule: Q01DX009 (ip), vehicle: carboxymethylcellulose (CMC) 97 % of control

NC(=O)Nc1cccc(C(=O)O)c1C(=O)O
inactive: endpoint: mean survival time, dose: 100.0 mg/kg/injection, schedule: Q01DX001 (ip), vehicle: other 101 % of control | endpoint: mean survival time, dose: 100.0 mg/kg/injection, schedule: Q04DX003 (ip), vehicle: other 102 % of control | endpoint: mean survival time, dose: 200.0 mg/kg/injection, schedule: Q01DX001 (ip), vehicle: other 101 % of control | endpoint: mean survival time, dose: 200.0 mg/kg/injection, schedule: Q04DX003 (ip), vehicle: other 98 % of control | endpoint: mean survival time, dose: 400.0 mg/kg/injection, schedule: Q01DX001 (ip), vehicle: other 107 % of control | endpoint: mean survival time, dose: 400.0 mg/kg/injection, schedule: Q04DX003 (ip), vehicle: other 98 % of control

CCOP(=O)(CCN(C(C)C)C(C)C)OCC
inactive: [1] 100 % of control | [12] 100 % of control | [2] 88 % of control | [13] 93 % of control

N=C1c2ccccc2-c2ccccc21
inactive: [4] 96 % of control | [5] 88 % of control

CC(SC(C)C(=O)NN=C1CCSCC1)C(=O)NN=C1CCSCC1 (stereo not given)
inactive: endpoint: mean survival time, dose: 55.0 mg/kg/injection, schedule: Q01DX Z (ip), vehicle: methylcellulose (MC) 104 % of control | endpoint: mean survival time, dose: 83.0 mg/kg/injection, schedule: Q01DX Z (ip), vehicle: methylcellulose (MC) 91 % of control | endpoint: mean survival time, dose: 125.0 mg/kg/injection, schedule: Q01DX Z (ip), vehicle: methylcellulose (MC) 114 % of control

COc1cccc(C2CCCCC2OS(C)(=O)=O)c1 (stereo not given)
inactive: endpoint: mean survival time, dose: 100.0 mg/kg/injection, schedule: Q01DX001 (ip), vehicle: carboxymethylcellulose (CMC) 97 % of control | endpoint: mean survival time, dose: 200.0 mg/kg/injection, schedule: Q01DX001 (ip), vehicle: carboxymethylcellulose (CMC) 92 % of control | endpoint: mean survival time, dose: 400.0 mg/kg/injection, schedule: Q01DX001 (ip), vehicle: carboxymethylcellulose (CMC) 95 % of control

O=C(N/C=C/NC(=O)c1ccccc1)c1ccccc1
inactive: endpoint: mean survival time, dose: 100.0 mg/kg/injection, schedule: Q01DX001 (ip), vehicle: Klucel (hydroxypropylcellulose) (HPC) 104 % of control | endpoint: mean survival time, dose: 200.0 mg/kg/injection, schedule: Q01DX001 (ip), vehicle: Klucel (hydroxypropylcellulose) (HPC) 111 % of control | endpoint: mean survival time, dose: 400.0 mg/kg/injection, schedule: Q01DX001 (ip), vehicle: Klucel (hydroxypropylcellulose) (HPC) 104 % of control

COC1OC2COC(c3ccccc3)OC2C(N=Cc2ccccc2)C1O (stereo not given)
inactive: [9] 97 % of control | [10] 101 % of control | [11] 98 % of control

CC1(C)OC2C(COC(=O)Oc3ccccc3)OC(n3cnc4c(=S)nc[nH]c43)C2O1 (stereo not given)
inactive: [9] 117 % of control | [2] 100 % of control | [3] 109 % of control

CC(C)(CCCl)NCc1ccccc1
inactive: endpoint: mean survival time, dose: 25.0 mg/kg/injection, schedule: Q01DX009 (ip), vehicle: saline 101 % of control | [14] 104 % of control | [15] 88 % of control | [16] 99 % of control

C=CCn1cnc(=N)c2[nH]cnc21
inactive: [14] 94 % of control | [15] 87 % of control | [16] 90 % of control | endpoint: mean survival time, dose: 200.0 mg/kg/injection, schedule: Q01DX009 (ip), vehicle: saline 93 % of control | [17] 94 % of control

O=C1/C(=C\c2ccc([N+](=O)[O-])cc2)CS(=O)(=O)C/C1=C/c1ccc([N+](=O)[O-])cc1
inactive: [1] 97 % of control | endpoint: mean survival time, dose: 100.0 mg/kg/injection, schedule: Q01DX001 (ip), vehicle: saline 97 % of control | [12] 93 % of control | endpoint: mean survival time, dose: 200.0 mg/kg/injection, schedule: Q01DX001 (ip), vehicle: saline 94 % of control | [13] 92 % of control

Br/C=C/C1CCCCC1
inactive: endpoint: mean survival time, dose: 100.0 mg/kg/injection, schedule: Q01DX009 (ip), vehicle: acetone 104 % of control | [16] 105 % of control | endpoint: mean survival time, dose: 200.0 mg/kg/injection, schedule: Q01DX009 (ip), vehicle: acetone 123 % of control | [17] 92 % of control | endpoint: mean survival time, dose: 400.0 mg/kg/injection, schedule: Q01DX009 (ip), vehicle: acetone 107 % of control | endpoint: mean survival time, dose: 400.0 mg/kg/injection, schedule: Q04DX003 (ip), vehicle: saline 92 % of control
